# Measured values reported in PubChem BioAssay (NCI).
#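 Test compounds were applied to cells in 96-well plates for 48 hours at 5 doses. At the GI50, growth is halved. Definition used: TGI = concentration required for complete inhibition of growth.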
# Key:
# Test in all cases: inhibition of tumour cell growth, NCI panel, 48 h
# SF-539 CNS = system: SF-539 CNS
# UACC-62 melanoma = system: UACC-62 melanoma
# SF-295 CNS = system: SF-295 CNS
# SK-MEL-5 melanoma = system: SK-MEL-5 melanoma
# SR leukemia = system: SR leukemia
# M14 melanoma = system: M14 melanoma
# SN12C renal = system: SN12C renal
# 786-0 renal = system: 786-0 renal
# MCF7 breast = system: MCF7 breast
# HS 578T breast = system: HS 578T breast
SMILES,GI50 (SF-539 CNS) [nM],TGI (SF-539 CNS) [nM],GI50 (UACC-62 melanoma) [nM],TGI (UACC-62 melanoma) [nM],GI50 (SF-295 CNS) [nM],TGI (SF-295 CNS) [nM],GI50 (SK-MEL-5 melanoma) [nM],TGI (SK-MEL-5 melanoma) [nM],GI50 (SR leukemia) [nM],TGI (SR leukemia) [nM],GI50 (M14 melanoma) [nM],TGI (M14 melanoma) [nM],GI50 (SN12C renal) [nM],TGI (SN12C renal) [nM],GI50 (786-0 renal) [nM],TGI (786-0 renal) [nM],GI50 (MCF7 breast) [nM],TGI (MCF7 breast) [nM],GI50 (HS 578T breast) [nM],TGI (HS 578T breast) [nM]
Cc1[nH]c(C(=O)Nc2cccc(OC3CCNCC3)c2)c(Cl)c1Cl,1640,3060,1810,3450,1970,3960,1780,3230,2020,5090,1800,3520,2800,10100,1830,3440,1500,3050,2020,5160
CCN1CCN(Cc2ccc(NC(=O)Nc3nc(-c4cc(OC)c(OC)c(OC)c4)cs3)cc2C(F)(F)F)CC1,1690,3120,1680,3180,1550,3130,1670,3040,1200,3080,1580,3160,1450,3190,1660,3150,1440,3020,1650,5040
Cn1c2c(c3ccccc31)CCN1C[C@@H]3CCCC[C@H]3C[C@@H]21,2870,> 30000,4190,> 100000,2250,6580,1420,4070,2960,> 25800,2950,18400,3820,> 100000,3580,17500,3170,> 72800,4510,> 100000
Cc1cc(S(=O)(=O)Nc2nc3ccccc3c(=O)n2Cc2ccco2)c(S)cc1Cl,31500,84500,36400,> 100000,31800,> 100000,22800,> 100000,19500,40700,69900,> 100000,29800,88800,36100,> 100000,41500,> 100000,30500,> 100000
CC1(C)CC[C@]23CC[C@]4(C)[C@H](CC[C@@H]5[C@@]6(C)CCCNC(C)(C)[C@@H]6CC[C@]54C)[C@H]2[C@H]1OC3,1640,3070,1790,3210,1700,3190,1690,3060,1490,4120,1770,3310,1680,3200,1660,3210,1440,3010,1960,4690
COc1cccc2nc(Nc3cccc(NC(=O)c4ccc(N5CCN(C)CC5)c(C(F)(F)F)c4)c3)ccc12,895,1660,1060,2280,967,1920,1520,5030,1130,3450,899,1950,1700,7470,923,1780,851,1900,1070,2930
COc1ccc(OC(=O)N2C/C(=C\c3ccccc3)C(=O)/C(=C/c3ccccc3)C2)cc1,–,22500,–,5350,–,10100,–,8840,–,2640,–,7970,–,5830,–,7960,–,4770,–,7330
CS(=O)(=O)Nc1cc(-c2ccc3ncc(C#N)c(Nc4ccc(F)c(Cl)c4)c3c2)cnc1Cl,109,790,73,596,181,820,42.8,159,161,1120,193,1920,133,> 100000,256,–,94.6,> 100000,131,798
COc1ccc2[nH]c(C(=O)OCc3ccc4c(Br)cc(Br)c(O)c4n3)cc2c1,768,2050,1060,2290,2020,5330,1610,2970,293,2040,830,2290,617,2020,1230,2610,442,2050,1660,4970
CNC(=O)/C=C/C1=CN2C(=O)c3ccc(C)c(O)c3NC(OC)C2C1 (centres undefined),–,< 17.6,–,< 15.4,–,1070,–,186,–,59.8,–,19.1,–,12100,–,9150,–,16600,–,< 26.4
